This note sets out measurements from US20240417405A1, “Substituted Spiro Derivatives” (Janssen Pharmaceutica NV, priority 2021, published 2024).

The test system of one assay is MOLM14 cells. Put plainly: Proliferation assay, spheroid-like growth, MOLM14 (MLL-AF9 rearranged). It is filed as cell-based, human. As to conditions: Homo sapiens, MOLM-14, 192 h, 8 days, confluence as measure of spheroid size, read-out: spheroid assay_OneTime MOLM14 IC50. A digest of the protocol: (§1)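 Cells seeded in ultra-low attachment round-bottom wells (200 MOLM14 or 300 KO-52 per well) with compound at several concentrations, DMSO 0.3%, grown 8 days at 37° C, 5% CO2. Spheroid size taken as confluence from day-8 live-cell images; IC50 from variable-slope fit, DMSO as 0% and high-dose reference compound as 100% effect.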

For another assay, the system named is KO-52 cells. The assay is described as follows: Proliferation assay, spheroid-like growth, KO-52 (MLL wildtype control cell line). Format: cell-based, human. The conditions noted are these: Homo sapiens, 192 h, KO-52 control cells, 8 days, confluence as measure of spheroid size; read-out: spheroid assay_OneTime KO-52 IC50. A digest of the protocol: as §1
In assay [1] the target is T1, menin/MLL (terbium chelate-labeled menin, FITC-MBM1 peptide) (Homo sapiens, UniProt O00255, T541A).
T1 construct: Menin (a.a 1-610-6xhis tag)
T1 sequence (O00255 with tags, fused parts or gaps T541A): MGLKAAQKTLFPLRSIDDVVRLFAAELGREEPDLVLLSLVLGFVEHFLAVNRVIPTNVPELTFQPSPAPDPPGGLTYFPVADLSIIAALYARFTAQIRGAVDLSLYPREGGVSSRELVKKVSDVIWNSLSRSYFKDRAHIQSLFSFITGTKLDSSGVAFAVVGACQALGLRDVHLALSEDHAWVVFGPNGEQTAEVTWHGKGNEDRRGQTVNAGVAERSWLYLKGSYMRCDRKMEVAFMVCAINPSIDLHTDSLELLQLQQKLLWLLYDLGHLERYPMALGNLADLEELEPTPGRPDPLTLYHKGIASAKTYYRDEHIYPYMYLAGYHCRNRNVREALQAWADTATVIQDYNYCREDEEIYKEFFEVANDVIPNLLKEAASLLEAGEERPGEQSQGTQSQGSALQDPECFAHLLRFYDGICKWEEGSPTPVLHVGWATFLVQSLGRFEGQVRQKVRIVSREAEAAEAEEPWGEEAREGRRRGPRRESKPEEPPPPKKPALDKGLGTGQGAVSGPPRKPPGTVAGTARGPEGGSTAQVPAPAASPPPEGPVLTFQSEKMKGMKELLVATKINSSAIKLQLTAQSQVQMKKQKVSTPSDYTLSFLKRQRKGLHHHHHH
Put plainly: Menin/MLL homogenous time-resolved fluorescence (HTRF) assay. Format: binding. The conditions noted are these: 30 min incubation. Summed up:
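Terbium-labeled menin (aa 1-610, His-tagged; 200 pM) preincubated 30 min with compound, then 75 nM FITC-MBM1 peptide added for 15 min at ambient temperature in pH 7.5 Tris buffer, 0.5% DMSO. HTRF ratio 520/490 nm converted to % inhibition. IC50 came from an 11-point four-fold titration from 10 μM, floor 0.1 nM.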
In general terms: TR-FRET usually uses a lanthanide donor and a delayed reading to cut background.

What is called IC50 is the point on the concentration scale where inhibition reaches its midpoint. For the compound `CC(C)[C@H]([C@H]1C[C@@H](N2CC[C@@]3(CCN(C)C3=O)C2)C1)N1CC2(CCN(c3ncnnc3Oc3ccc(F)cc3-c3cncnc3C3CC3)C2)C1` (single isomer, unassigned) [Compound 66], the IC50 in the assay on MOLM14 cells is 6 nM; in the assay with KO-52 cells it was > 15000 nM; in assay [1], 0.1 nM.
Regarding `CC(C)[C@H]([C@H]1C[C@@H](N2CC[C@]3(CCN(C)C3=O)C2)C1)N1CC2(CCN(c3ncnnc3Oc3ccc(F)cc3-c3cncnc3C3CC3)C2)C1` (single isomer, unassigned) [Compound 67], the half-inhibitory concentration (IC50) with MOLM14 cells is 7 nM; with KO-52 cells, > 15000 nM; in assay [1], 0.1 nM.
Turning to `CC(C)[C@H]([C@H]1C[C@@H](N2CC[C@H](C(C)(C)O)C2)C1)N1CC2(CCN(c3ncnnc3Oc3ccc(F)cc3-c3cncnc3C3CC3)C2)C1` (single isomer, unassigned) [Compound 68], the IC50 came out at 5 nM in the assay on MOLM14 cells, 4410 nM in the assay with KO-52 cells and 0.1 nM in assay [1].
Taken in the same sequence, the figures for `CC(C)[C@H]([C@H]1C[C@H](N2CC[C@H](C(C)(C)O)C2)C1)N1CC2(CCN(c3ncnnc3Oc3ccc(F)cc3-c3cncnc3C3CC3)C2)C1` (single isomer, unassigned) [Compound 69] were 39 nM, 14000 nM and 0.1 nM.
Taken in the same sequence, the figures for `CC(C)[C@H]([C@H]1C[C@@H](N2CC[C@@H](C(C)(C)O)C2)C1)N1CC2(CCN(c3ncnnc3Oc3ccc(F)cc3-c3cncnc3C3CC3)C2)C1` (single isomer, unassigned) [Compound 70] were 4 nM, 5150 nM and 0.1 nM.
For `CC(C)[C@H]([C@H]1C[C@H](N2CC[C@@H](C(C)(C)O)C2)C1)N1CC2(CCN(c3ncnnc3Oc3ccc(F)cc3-c3cncnc3C3CC3)C2)C1` (single isomer, unassigned) [Compound 71], the figures for the IC50 (in the assay with MOLM14 cells; in the assay with KO-52 cells; in assay [1]) were 60 nM, 9730 nM and 0.1 nM, respectively.
`CC(C)[C@H]([C@H]1C[C@@H](N2CCC[C@H](O)C2)C1)N1CC2(CCN(c3ncnnc3Oc3ccc(F)cc3-c3cccnc3C3CC3)C2)C1` (single isomer, unassigned) [Compound 78]: the IC50 with MOLM14 cells was determined as 630 nM; with KO-52 cells, 4640 nM; in assay [1] it was 2.9 nM.
For the compound `CC(=O)N1CCN([C@H]2C[C@@H]([C@@H](C(C)C)N3CC4(CCN(c5ncnnc5Oc5ccc(F)cc5-c5ncc(C#N)cc5C5CC5)C4)C3)C2)CC1` (single isomer, unassigned) [Compound 79], the half-inhibitory concentration (IC50) turned out to be 240 nM in the assay on MOLM14 cells, 3660 nM in the assay with KO-52 cells and 0.3 nM in assay [1].
Regarding `CC(=O)N1CCN([C@H]2C[C@@H]([C@@H](C(C)C)N3CC4(CCN(c5ncnnc5Oc5ccc(F)cc5-c5cnncc5C5CC5)C4)C3)C2)CC1` (single isomer, unassigned) [Compound 80], the half-inhibitory concentration (IC50) in the assay with MOLM14 cells was > 940 nM; with KO-52 cells, > 15000 nM; in assay [1] it was 43.2 nM.
For the compound `CO[C@H]1CCN([C@H]2C[C@@H]([C@@H](C(C)C)N3CC4(CCN(c5ncnnc5Oc5ccc(F)cc5-c5cnncc5C5CC5)C4)C3)C2)C1` (single isomer, unassigned) [Compound 81], the IC50 is 280 nM in the assay with MOLM14 cells, > 15000 nM in the assay with KO-52 cells and 2 nM in assay [1].
Taken in the same sequence, the figures for `CC(C)[C@H]([C@H]1C[C@@H](N2CC3(COC3)C2)C1)N1CC2(CCN(c3ncnnc3Oc3ccc(F)cc3-c3cnncc3C3CC3)C2)C1` (single isomer, unassigned) [Compound 82] were 300 nM, > 15000 nM and 0.4 nM.
Turning to `CC(C)[C@H]([C@H]1C[C@H](N2CC3(COC3)C2)C1)N1CC2(CCN(c3ncnnc3Oc3ccc(F)cc3-c3cnncc3C3CC3)C2)C1` (single isomer, unassigned) [Compound 83], the IC50 in the assay with MOLM14 cells is 980 nM; in the assay on KO-52 cells, > 15000 nM; in assay [1], 1.6 nM.
With `CC(C)[C@H]([C@H]1C[C@@H](N2CC3(CCO3)C2)C1)N1CC2(CCN(c3ncnnc3Oc3ccc(F)cc3-c3cnncc3C3CC3)C2)C1` (single isomer, unassigned) [Compound 84], the figures for the 50% inhibitory concentration (IC50) (in the assay with MOLM14 cells; with KO-52 cells; in assay [1]) were 220 nM, > 15000 nM and 5.5 nM, respectively.
In the case of `CC(C)[C@H]([C@H]1C[C@H](N2CC3(CCO3)C2)C1)N1CC2(CCN(c3ncnnc3Oc3ccc(F)cc3-c3cnncc3C3CC3)C2)C1` (single isomer, unassigned) [Compound 84a], the half-inhibitory concentration (IC50) in the assay with MOLM14 cells is 850 nM; with KO-52 cells it was > 15000 nM; in assay [1], 21.5 nM.
Take `CC(C)[C@@H]([C@H]1C[C@@H](N2CCC(O)C(F)C2)C1)N1CC2(CCN(c3ncnnc3Oc3ccc(F)cc3-c3cncnc3C3CC3)C2)C1` (single isomer, unassigned) [Compound 85]: the half-inhibitory concentration (IC50) in the assay on MOLM14 cells is 1560 nM; with KO-52 cells, > 15000 nM; in assay [1], 25.4 nM.
In the same order, the values of `CC(C)[C@@H]([C@H]1C[C@H](N2CCC(O)C(F)C2)C1)N1CC2(CCN(c3ncnnc3Oc3ccc(F)cc3-c3cncnc3C3CC3)C2)C1` (single isomer, unassigned) [Compound 86] are 650 nM, > 15000 nM and 17.2 nM.
On to `CC1CN([C@H]2C[C@@H]([C@H](C(C)C)N3CC4(CCN(c5ncnnc5Oc5ccc(F)cc5-c5cncnc5C5CC5)C4)C3)C2)CCC1O` (single isomer, unassigned) [Compound 87], for which the values for the IC50 (with MOLM14 cells; in the assay on KO-52 cells; in assay [1]) were 820 nM, > 15000 nM and 1.9 nM, respectively.
In the case of `CC(C)[C@@H]([C@H]1C[C@@H](N2CCC(O)CC2)C1)N1CC2(CCN(c3ncnnc3Oc3ccc(F)cc3-c3cncnc3C3CC3)C2)C1` (single isomer, unassigned) [Compound 88], the figures for the IC50 (in the assay with MOLM14 cells; in the assay with KO-52 cells; in assay [1]) were 410 nM, > 15000 nM and 2.3 nM, respectively.
On to `CC(=O)N1CCN([C@H]2C[C@@H]([C@H](C(C)C)N3CC4(CCN(c5ncnnc5Oc5ccc(F)cc5-c5cccnc5C5CC5)C4)C3)C2)CC1` (single isomer, unassigned) [Compound 89], for which the half-maximal inhibitory concentration (IC50) was found to be 20 nM in the assay with MOLM14 cells, 6180 nM in the assay with KO-52 cells and 0.2 nM in assay [1].
In the same order, the values of `CC(C)[C@@H]([C@H]1C[C@@H](N(C)C)C1)N1CC2(CCN(c3ncnnc3Oc3ccc(F)cc3-c3cccnc3C3CC3)C2)C1` (single isomer, unassigned) [Compound 90] are 2 nM, 540 nM and 0.1 nM.
Regarding `CC(C)[C@@H]([C@H]1C[C@H](N(C)C)C1)N1CC2(CCN(c3ncnnc3Oc3ccc(F)cc3-c3cccnc3C3CC3)C2)C1` (single isomer, unassigned) [Compound 91], the results for the IC50 (with MOLM14 cells; with KO-52 cells; in assay [1]) were 26 nM, 1030 nM and 0.1 nM, respectively.
Turning to `CC(C)[C@@H]([C@H]1C[C@@H](N2CCN(C(=O)N(C)C)CC2)C1)N1CC2(CCN(c3ncnnc3Oc3ccc(F)cc3-c3cccnc3C3CC3)C2)C1` (single isomer, unassigned) [Compound 92], the figures for the IC50 (in the assay on MOLM14 cells; with KO-52 cells; in assay [1]) were 7 nM, 780 nM and 0.1 nM, respectively.
